Results as given in the CheMixHub viscosity set.
± gives the uncertainty stated by the source.

Assay: xn = mol fraction of the nth substance listed

Nc1ccccc1 + CCCCCCCCCO
viscosity [mPa·s], 100 kPa
Conditions	x1 = 0.0851	x1 = 0.1597	x1 = 0.2339	x1 = 0.3537	x1 = 0.4468	x1 = 0.5616	x1 = 0.6482	x1 = 0.7383	x1 = 0.8486	x1 = 0.9448
293.15 K	9.99 ± 0.8	8.96 ± 0.72	8.14 ± 0.65	6.97 ± 0.56	6.19 ± 0.5	5.33 ± 0.43	4.9 ± 0.39	4.53 ± 0.36	4.24 ± 0.34	4.2 ± 0.34
303.15 K	6.9 ± 0.55	6.21 ± 0.5	5.58 ± 0.45	4.87 ± 0.39	4.36 ± 0.35	3.79 ± 0.3	3.46 ± 0.28	3.24 ± 0.26	3.06 ± 0.25	3.04 ± 0.24
313.15 K	4.94 ± 0.4	4.47 ± 0.36	4.08 ± 0.33	3.58 ± 0.29	3.25 ± 0.26	2.85 ± 0.23	2.64 ± 0.21	2.48 ± 0.2	2.38 ± 0.19	2.38 ± 0.19
323.15 K	3.67 ± 0.29	3.35 ± 0.27	3.06 ± 0.25	2.71 ± 0.22	2.47 ± 0.2	2.19 ± 0.18	2.05 ± 0.16	1.94 ± 0.16	1.87 ± 0.15	1.88 ± 0.15

CCNCC + CCCCCCCCO
viscosity [mPa·s], 100 kPa
Conditions	x1 = 0.0804	x1 = 0.16	x1 = 0.2402	x1 = 0.3517	x1 = 0.4405	x1 = 0.5609	x1 = 0.65	x1 = 0.7404	x1 = 0.8495	x1 = 0.9402
293.15 K	8.22 ± 0.66	7.36 ± 0.59	6.53 ± 0.52	5.45 ± 0.44	4.61 ± 0.37	3.56 ± 0.29	2.82 ± 0.23	2.13 ± 0.17	1.33 ± 0.11	0.7 ± 0.06
303.15 K	5.75 ± 0.46	5.14 ± 0.41	4.54 ± 0.36	3.76 ± 0.3	3.18 ± 0.26	2.44 ± 0.2	1.94 ± 0.16	1.46 ± 0.12	0.93 ± 0.08	0.53 ± 0.04
313.15 K	4.15 ± 0.33	3.7 ± 0.3	3.26 ± 0.26	2.69 ± 0.22	2.28 ± 0.18	1.75 ± 0.14	1.4 ± 0.11	1.06 ± 0.09	0.69 ± 0.06	0.42 ± 0.03
323.15 K	3.05 ± 0.25	2.71 ± 0.22	2.39 ± 0.19	1.97 ± 0.16	1.67 ± 0.13	1.3 ± 0.1	1.04 ± 0.08	0.8 ± 0.06	0.54 ± 0.04	0.34 ± 0.03

Nc1ccccc1 + CCCCCCCCO
viscosity [mPa·s], 100 kPa
Conditions	x1 = 0.0862	x1 = 0.1575	x1 = 0.2382	x1 = 0.3514	x1 = 0.4471	x1 = 0.5637	x1 = 0.6558	x1 = 0.7476	x1 = 0.8555	x1 = 0.9421
293.15 K	8.01 ± 0.64	7.27 ± 0.58	6.6 ± 0.53	5.83 ± 0.47	5.28 ± 0.42	4.66 ± 0.37	4.4 ± 0.35	4.19 ± 0.34	4.03 ± 0.32	4.14 ± 0.33
303.15 K	5.66 ± 0.45	5.15 ± 0.41	4.7 ± 0.38	4.15 ± 0.33	3.77 ± 0.3	3.36 ± 0.27	3.15 ± 0.25	3.03 ± 0.24	2.93 ± 0.24	3 ± 0.24
313.15 K	4.11 ± 0.33	3.75 ± 0.3	3.47 ± 0.28	3.1 ± 0.25	2.85 ± 0.23	2.57 ± 0.21	2.43 ± 0.2	2.34 ± 0.19	2.3 ± 0.18	2.36 ± 0.19
323.15 K	3.09 ± 0.25	2.85 ± 0.23	2.63 ± 0.21	2.37 ± 0.19	2.18 ± 0.17	1.98 ± 0.16	1.89 ± 0.15	1.83 ± 0.15	1.81 ± 0.15	1.86 ± 0.15

CCNCC + CCCCCCCO
viscosity [mPa·s], 100 kPa
Conditions	x1 = 0.0806	x1 = 0.1606	x1 = 0.2415	x1 = 0.3492	x1 = 0.4394	x1 = 0.5613	x1 = 0.6506	x1 = 0.7401	x1 = 0.8503	x1 = 0.9414
293.15 K	6.26 ± 0.5	5.55 ± 0.45	4.87 ± 0.39	4.03 ± 0.32	3.37 ± 0.27	2.55 ± 0.21	2.02 ± 0.16	1.52 ± 0.12	0.947 ± 0.077	0.532 ± 0.044
303.15 K	4.47 ± 0.36	3.94 ± 0.32	3.45 ± 0.28	2.83 ± 0.23	2.36 ± 0.19	1.78 ± 0.14	1.4 ± 0.11	1.07 ± 0.09	0.7 ± 0.06	0.43 ± 0.04
313.15 K	3.3 ± 0.27	2.91 ± 0.23	2.53 ± 0.2	2.07 ± 0.17	1.72 ± 0.14	1.3 ± 0.1	1.03 ± 0.08	0.79 ± 0.06	0.52 ± 0.04	0.35 ± 0.03
323.15 K	2.47 ± 0.2	2.17 ± 0.17	1.89 ± 0.15	1.54 ± 0.12	1.28 ± 0.1	0.97 ± 0.08	0.78 ± 0.06	0.6 ± 0.05	0.42 ± 0.03	0.3 ± 0.03

COCCOCCOCCOC + CCCCCCCO
101 kPa
Conditions	viscosity [mPa·s]
293.15 K, x1 = 0.05281	5.682 ± 0.06
293.15 K, x1 = 0.09018	5.069 ± 0.054
293.15 K, x1 = 0.2084	3.662 ± 0.039
293.15 K, x1 = 0.2924	3.185 ± 0.034
293.15 K, x1 = 0.4036	2.821 ± 0.03
293.15 K, x1 = 0.5165	2.541 ± 0.027
293.15 K, x1 = 0.5861	2.393 ± 0.026
293.15 K, x1 = 0.6984	2.25 ± 0.024
293.15 K, x1 = 0.8022	2.21 ± 0.024
293.15 K, x1 = 0.8977	2.195 ± 0.024
293.15 K, x1 = 0.9591	2.185 ± 0.024
303.15 K, x1 = 0.05495	4.164 ± 0.045
303.15 K, x1 = 0.08973	3.734 ± 0.04
303.15 K, x1 = 0.2069	2.83 ± 0.03
303.15 K, x1 = 0.2951	2.469 ± 0.027
303.15 K, x1 = 0.403	2.197 ± 0.024
303.15 K, x1 = 0.504	2.013 ± 0.022
303.15 K, x1 = 0.5851	1.916 ± 0.021
303.15 K, x1 = 0.705	1.813 ± 0.02
303.15 K, x1 = 0.7893	1.785 ± 0.019
303.15 K, x1 = 0.9012	1.776 ± 0.019
303.15 K, x1 = 0.9516	1.777 ± 0.019
313.15 K, x1 = 0.0542	3.158 ± 0.034
313.15 K, x1 = 0.09194	2.876 ± 0.031
313.15 K, x1 = 0.2077	2.266 ± 0.024
313.15 K, x1 = 0.2951	2 ± 0.022
313.15 K, x1 = 0.4053	1.782 ± 0.019
313.15 K, x1 = 0.5078	1.654 ± 0.018
313.15 K, x1 = 0.59	1.579 ± 0.017
313.15 K, x1 = 0.7035	1.515 ± 0.016
313.15 K, x1 = 0.795	1.483 ± 0.016
313.15 K, x1 = 0.9054	1.474 ± 0.016
313.15 K, x1 = 0.9487	1.471 ± 0.016

Nc1ccccc1 + CCCCCCCO
viscosity [mPa·s], 100 kPa
Conditions	x1 = 0.0821	x1 = 0.1633	x1 = 0.2429	x1 = 0.3578	x1 = 0.4421	x1 = 0.5517	x1 = 0.6514	x1 = 0.7434	x1 = 0.8522	x1 = 0.9421
293.15 K	6.21 ± 0.5	5.64 ± 0.45	5.21 ± 0.42	4.74 ± 0.38	4.45 ± 0.36	4.11 ± 0.33	3.94 ± 0.32	3.86 ± 0.31	3.86 ± 0.31	4.1 ± 0.33
303.15 K	4.48 ± 0.36	4.11 ± 0.33	3.82 ± 0.31	3.46 ± 0.28	3.23 ± 0.26	2.99 ± 0.24	2.86 ± 0.23	2.79 ± 0.22	2.82 ± 0.23	2.97 ± 0.24
313.15 K	3.31 ± 0.27	3.05 ± 0.24	2.85 ± 0.23	2.61 ± 0.21	2.46 ± 0.2	2.3 ± 0.18	2.22 ± 0.18	2.19 ± 0.18	2.22 ± 0.18	2.34 ± 0.19
323.15 K	2.51 ± 0.2	2.36 ± 0.19	2.2 ± 0.18	2.01 ± 0.16	1.91 ± 0.15	1.8 ± 0.14	1.75 ± 0.14	1.73 ± 0.14	1.75 ± 0.14	1.84 ± 0.15
